We go through one compound from patent publication US11819500B2, “T-cell regulation in t-cell mediated diseases by reducing pathogenic function of TH17 in a human subject through treatment with a nitroxide” (priority 2016, dated 2023).

Assay [1] deals with Bri3. Kind of assay: Serum level of Bri3 after Tempol treatment of a human subject. The format is in vivo. The conditions noted are these: human subject with or at risk of a neurodegenerative disease (e.g., Alzheimer's Disease); 1500 mg per day for 180 days. Here is the method:
A human subject is administered a dose of 1500 mg of Tempol (or a nitroxide antioxidant) per day for 180 days. The human subject may be a 70-kilogram human subject over the age of 65. The human subject may be at risk of developing a neurodegenerative disease (e.g., Alzheimer's Disease), may have symptoms of a neurodegenerative disease, and/or may have a neurodegenerative disease. The risk, the symptoms, or the neurodegenerative disease may be caused by decreased expression level of Bri3. The human subject can be identified. The dose may be administered in a single dose, or may be administered as a number of smaller doses over a 24-hour period: for example, three 500-mg doses at eight-hour intervals. Following treatment, the serum level of Bri3 is increased. Increased Bri3 expression can inhibit amyloid precursor protein (APP) processing and amyloid plaque deposition, thus suppressing or reversing development of the neurodegenerative disease.

Assay [2] has as its system Perp. Kind of assay: Level of Perp after Tempol treatment of a human subject. The format is in vivo. The following applies: 70-kilogram human subject with a disorder such as a desmosome-associated disorder; 1500 mg per day for 180 days. Here is the method:
A human subject is administered a dose of 1500 mg of Tempol (or a nitroxide antioxidant) per day for 180 days. The human subject is a 70-kilogram human subject. The human subject may have a disorder (such as a desmosome-associated disorder, which can be associated or characterized by damaged epithelial tissue). The human subject can be identified. The dose may be administered in a single dose, or may be administered as a number of smaller doses over a 24-hour period: for example, three 500-mg doses at eight-hour intervals. Following treatment, the level (e.g., the serum level) of Perp is increased, which can in turn increase desmosome function (e.g., characterized by epithelial integrity)

The test system of the next assay is Unc5b. Description: Gene expression in cardiac tissue after Tempol administration (chip-based microarray). The format is in vivo. The following applies: mice aged 31 months, Tempol 5 mg/g of food from 14 to 31 months, control mice 103. Here is the method:
(§1) To assess the effects of Tempol on gene expression, Tempol was administered to experimental mice at a dose of 5 mg/g of food from 14 months to 31 months after birth. Mice receiving the same food without the addition of Tempol were used as a negative control. At the age of 31 months, the experimental animals were sacrificed and the hearts were surgically removed. The expression of a broad spectrum of genes in the cardiac tissue was assessed using chip-based microarray technology. Such chips are well known in the art and are widely used to assess gene expression.

For assay [3], the system named is Bri3. The description is as above. The format is in vivo. The following applies: mice aged 31 months, Tempol 5 mg/g of food from 14 to 31 months, control mice 1549. Here is the method:
as §1

For assay [4], the system named is Cd5l. Described as above. The format is in vivo. The following applies: mice aged 31 months, Tempol 5 mg/g of food from 14 to 31 months, control mice 150. Here is the method:
as §1

Assay [5] relates to Perp. The assay is described as above. The following applies: mice aged 31 months, Tempol 5 mg/g of food from 14 to 31 months, control mice 49. The format is in vivo. The protocol:
as §1

For the next assay, the system named is Bag5. The description is as above. The format is in vivo. The conditions noted are these: mice aged 31 months, Tempol 5 mg/g of food from 14 to 31 months, control mice 300. Here is the method:
as §1

Assay [6] relates to Cd5l, Perp, Unc5b, Bag5 or Bri3. The conditions noted are these: human, in vivo.
Assay [7] relates to Cd5l. Kind of assay: Serum level of Cd5l after Tempol treatment of a human subject. The format is in vivo. The conditions noted are these: 1500 mg per day for 180 days. Here is the method: A human subject is administered a dose of 1500 mg of Tempol (or a nitroxide antioxidant) per day for 180 days. The human subject may be a 70-kilogram human subject. The human subject may be at risk of having pathogenic T-helper cell activity, may have symptoms of pathogenic T-helper cell activity, and/or may have a disease (e.g., an autoimmune disease) associated with pathogenic T-helper cell activity (e.g., pathogenic T-helper 17 cell activity). The autoimmune disease may be mediated by IL-23 as an effector molecule. The human subject can be identified. The dose may be administered in a single dose, or may be administered as a number of smaller doses over a 24-hour period: for example, three 500-mg doses at eight-hour intervals. Following treatment, the serum level of Cd5l is increased. Increased Cd5l expression can alter lipid biosynthesis within the T-helper cell, thus suppressing the pathogenic T-helper cell activity and/or reversing the effect of the pathogenic T-helper cell activity.
A human subject is administered a dose of 1500 mg of Tempol (or a nitroxide antioxidant) per day for 180 days. The human subject may be a 70-kilogram human subject. The human subject may be at risk of developing an autoimmune disease, may have symptoms of an autoimmune disease, and/or may have an autoimmune disease. The autoimmune disease may be mediated by IL-23 as an effector molecule. […]

Regarding `CC1(C)CC(O)CC(C)(C)N1[O]` [Tempol, 4-hydroxy-2,2,6,6-tetramethylpiperidine-1-oxyl], the “serum level of Bri3” value in the assay on Bri3 [1] is recorded as “increased”. Also, the “level (e.g., the serum level) of Perp” value in the assay on Perp [2] is “increased”. Also, the “Unc5b expression, Tempol-treated mice” value in the assay on Unc5b came to 172. For the same compound, the “Bri3 expression, Tempol-treated mice” value in the assay on Bri3 [3] is given as 1835. In addition, in the assay with Cd5l [4], the “Cd5l expression, Tempol-treated mice” value came to 406. In addition, in the assay with Perp [5], the “Perp expression, Tempol-treated mice” value is reported as 82. For the same compound, in the assay with Bag5, the “Bag5 expression, Tempol-treated mice” value is listed as 370. Moreover, the “serum level of Cd5l, Perp, Unc5b, Bag5 or Bri3” value in assay [6] is “increased”. Besides, the “serum level of Cd5l” value with Cd5l [7] (human subject with or at risk of developing an autoimmune disease) and in the assay on Cd5l [7] (human subject with or at risk of pathogenic T-helper cell activity) was “increased” throughout.
